Measurements taken from PMC8635108, “Identification of Novel Type Three Secretion System (T3SS) Inhibitors by Computational Methods and Anti-Salmonella Evaluations” (Frontiers in Pharmacology, 2021).
Values after ≈ are worked out from the molar mass of the structure shown.

How the values were obtained:
Assay type in all cases: cell-based
[1] = system: S. typhimurium invasion of human epithelial cell line (Henle 407); test: Salmonella invasion assay; details: Henle 407 cells, triplicate
Procedure: The effect of T3SS inhibitor candidates on the ability of S. typhimurium to invade a cultured human epithelial cell line (Henle 407) was performed in a method similar to one previously described ([Chatterjee et al., 2011]). Henle 407 cells were grown in DMEM with 10% fetal calf serum at 37°C in 5% CO2 in 24-well plates. The plasmid pRK2-SipD with WT SipD was electroporated into the S. typhimurium SipD ^− strain and single colonies were inoculated into LB media supplemented with 25 mg/L trimethoprim, 50 mg/L ampicillin, 50 mg/L kanamycin and grown in standing cultures overnight. A 10 ml LB culture with 1 mM IPTG was inoculated with 1 ml of overnight bacterial growth, and incubated at 37°C on standing for 2.5–3 h. Approximately 15–30 uL of bacterial suspension was added with 300 uL DMEM into the Henle 407 cells and incubated at 37°C for 60 min to allow invasion before the suspension was removed by aspiration. The Henle 407 cells were incubated with fresh DMEM with 100 mg/L of gentamycin for 1.5 h, aspirated, rinsed with DMEM, and lysed with 1% Triton X-100 to free the entrapped bacteria. The number of bacterial colonies, which correlated with invasiveness, was estimated by serial dilution and plating. The Salmonella invasion assay was done in triplicate.

[2] = In vitro cytotoxicity assay (MTT); details: mouse, RAW 264.7 cells, read-out: cell viability
Procedure: To study the cytotoxic effects of compounds on cell viability, the RAW 264.7 cells were seeded into 96-well plates at 1 ×10^4 cells/well and allowed to attach for 24 h. The medium was replaced with 100 μL medium containing the indicated concentrations of compounds and further incubated for 24 h. Each well was added 10 μL MTT (5 mg/ml in PBS) and the plates were incubated for 4 h at 37°C. Supernatants were aspirated and formed formazan was dissolved in 100 μL of dimethyl sulfoxide (DMSO). The optical density (OD) was measured at an absorbance wavelength of 490 nm using a Microplate Reader (Tecan, Switzerland).

[3] = system: S. typhimurium in RAW 264.7 cells; test: Intracellular killing assay; details: 1 h, vs non-treated S. typhimurium group
Procedure: The intracellular killing experiment was performed according to the previous reported protocol ([Birhanu et al., 2018]). RAW 264.7 cells (10^5 cells/ml) were cultured in 24-well plates, and then treated with S. Typhimurium (10^7 CFU/ml) and further incubated for 45 min. After the cells were washed, the compound 5 (8 μg/ml), […] (19 μg/ml) and 32 (34 μg/ml) or gatifloxacin (3 μg/ml) were respectively added and incubated for 1 h at 37 °C. Finally, cells were treated with gentamicin (100 μg/ml) for 1 h and lysed with 0.1% of trition × 100 before being serially diluted and plated on LB agar. The cells infected with S. Typhimurium without treatment was used as the control.

S. paratyphi = test: In vitro anti-Salmonella bioassay (MIC); details: Salmonella enterica, 24 h
Procedure: (§1) The anti-Salmonella activities of these compounds were performed according to the previous reported protocol ([Wei et al., 2016]), using the minimum inhibitory concentration (MIC) with different strains, including S. enteritidis, S. typhi, S. typhimurium, S. paratyphi, S. and abortus equi. Gatifloxacin was used as positive controls. The test compounds 5, 19, and 32 in DMSO were prepared and then poured into 96-well plates. The final concentration of o.39–100 μg/ml underwent a twofold serial dilution. The bacteria were incubated with a series of different concentrations of compounds at 37°C for 24 h. The microbacterial growth was measured at the absorption of 630 nm. All experiments were carried out in triplicate.

S. typhi = test: In vitro anti-Salmonella bioassay (MIC); details: Salmonella enterica, 37°C 24 h, mean ± SD, three times
Procedure: as §1

S. abortus equi = test: In vitro anti-Salmonella bioassay (MIC); details: Salmonella enterica, 37°C 24 h, mean ± SD, three times
Procedure: as §1

S. enteritidis = test: In vitro anti-Salmonella bioassay (MIC); details: Salmonella enterica, 37°C 24 h, mean ± SD, three times
Procedure: as §1

S. typhimurium = test: In vitro anti-Salmonella bioassay (MIC); details: Salmonella enterica, 37°C 24 h, mean ± SD, three times
Procedure: as §1

Structure (SMILES)	effect on invasiveness [1]	viability at 24 h, 8 μg/ml ([2]; 8 μg/ml)	decrease of intracellular survival of S. typhimurium ([3]; 8 μg/ml)	MIC (S. paratyphi)	MIC (S. typhi)	MIC (S. abortus equi)	MIC (S. enteritidis)	MIC (S. typhimurium)	viability at 24 h, 19 μg/ml ([2]; 19 μg/ml)	decrease of intracellular survival of S. typhimurium ([3]; 19 μg/ml)	viability at 24 h, 34 μg/ml ([2]; 34 μg/ml)	decrease of intracellular survival of S. typhimurium ([3]; 34 μg/ml)	intracellular survival suppression of S. typhimurium ([3]; 3 μg/ml)
O=C(O)c1ccc(Cn2nnc3sc4c(c3c2=O)CCCC4)cc1 [Compound 5]	most drastic effect on the invasiveness	84.2 ± 5.45%	44.4%	24.3 ± 3.5 µg/mL (≈ 71.2 µM)	12.3 ± 2.1 µg/mL (≈ 36 µM)	5 ± 1 µg/mL (≈ 14.6 µM)	31.6 ± 3.6 µg/mL (≈ 92.6 µM)	8 ± 2 µg/mL (≈ 23.4 µM)					
Nc1c(S(=O)(=O)O)ccc2c1C(=O)c1ccccc1C2=O [Compound 19]	most drastic effect on the invasiveness			16.3 ± 3.1 µg/mL (≈ 53.7 µM)	31.6 ± 5 µg/mL (≈ 104 µM)	3 ± 1 µg/mL (≈ 9.89 µM)	53.3 ± 4.9 µg/mL (≈ 176 µM)	19.1 ± 3.1 µg/mL (≈ 63 µM)	91.5 ± 7.09%	32.5%			
Nc1c(-c2ccc(Cl)cc2)cnn1-c1ccc(C(=O)O)cc1 [Compound 32]	most drastic effect on the invasiveness			22 ± 2.6 µg/mL (≈ 70.1 µM)	44 ± 4.6 µg/mL (≈ 140 µM)	1.2 ± 0.3 µg/mL (≈ 3.82 µM)	22 ± 3 µg/mL (≈ 70.1 µM)	34.3 ± 3.8 µg/mL (≈ 109 µM)			86.4 ± 6.04%	52.2%	
COc1c(N2CCNC(C)C2)c(F)cc2c(=O)c(C(=O)O)cn(C3CC3)c12 (stereo not drawn) [Gatifloxacin, reference compound]				3 ± 1.7 µg/mL (≈ 7.99 µM)	9.7 ± 2.5 µg/mL (≈ 25.8 µM)	2 ± 1 µg/mL (≈ 5.33 µM)	7.7 ± 1.5 µg/mL (≈ 20.5 µM)	3.3 ± 1.2 µg/mL (≈ 8.79 µM)					60.2%
